From PubChem BioAssay AID1845196 (Molecular Pharmacology Branch, DTP, NCI, 2023)

Tested on: 292921-168-R tumor spheroid viability
Assay: Anticancer human tumor 292921-168-R patient-derived pancreatic carcinoma cell line growth inhibition
Conditions: spheroids with HUVEC and MSC; for IC50: curve of first compound; for viability, T/C: stronger effect = lower value
Procedure, shortened: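 Single agents and combinations were tested on spheroids built from tumor cells plus HUVEC and hMSC, at half-log dilutions starting at or near clinical Cmax, else 10 microM; final DMSO 0.25% (v/v).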

[1] = second compound 0.003 µM, first compound 0.0316 µM
[2] = second compound 0.003 µM, first compound 0.1 µM
[3] = second compound 0.003 µM, first compound 0.316 µM
[4] = second compound 0.003 µM, first compound 1 µM
[5] = second compound 0.003 µM, first compound 3.16 µM
[6] = second compound 0.003 µM, first compound 10 µM
[7] = second compound 0.00949 µM, first compound 0.0316 µM
[8] = second compound 0.00949 µM, first compound 0.1 µM
[9] = second compound 0.00949 µM, first compound 0.316 µM
[10] = second compound 0.00949 µM, first compound 1 µM
[11] = second compound 0.00949 µM, first compound 3.16 µM
[12] = second compound 0.00949 µM, first compound 10 µM
[13] = second compound 0.03 µM, first compound 0.0316 µM
[14] = second compound 0.03 µM, first compound 0.1 µM
[15] = second compound 0.03 µM, first compound 0.316 µM
[16] = second compound 0.03 µM, first compound 1 µM
[17] = second compound 0.03 µM, first compound 3.16 µM
[18] = second compound 0.03 µM, first compound 10 µM
[19] = second compound 0.0949 µM, first compound 0.0316 µM
[20] = second compound 0.0949 µM, first compound 0.1 µM
[21] = second compound 0.0949 µM, first compound 0.316 µM
[22] = second compound 0.0949 µM, first compound 1 µM
[23] = second compound 0.0949 µM, first compound 3.16 µM
[24] = second compound 0.0949 µM, first compound 10 µM
[25] = second compound 0.3 µM, first compound 0.0316 µM
[26] = second compound 0.3 µM, first compound 0.1 µM
[27] = second compound 0.3 µM, first compound 0.316 µM
[28] = second compound 0.3 µM, first compound 1 µM
[29] = second compound 0.3 µM, first compound 3.16 µM
[30] = second compound 0.3 µM, first compound 10 µM
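Note: spheroids exposed to compounds for 7 days.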

| Structure (SMILES) | IC50 (second compound 0.003 µM) | IC50 (second compound 0.00949 µM) | IC50 (second compound 0.03 µM) | IC50 (second compound 0.0949 µM) | IC50 (second compound 0.3 µM) | viability, T/C [1] | viability, T/C [2] | viability, T/C [3] | viability, T/C [4] | viability, T/C [5] | viability, T/C [6] | viability, T/C [7] | viability, T/C [8] | viability, T/C [9] | viability, T/C [10] | viability, T/C [11] | viability, T/C [12] | viability, T/C [13] | viability, T/C [14] | viability, T/C [15] | also measured |
| --- | --- | --- | --- | --- | --- | --- | --- | --- | --- | --- | --- | --- | --- | --- | --- | --- | --- | --- | --- | --- | --- |
| Cc1cc(C)c(CNC(=O)c2cc(-c3ccc(CN4CCOCC4)cc3)cc3c2cnn3C2CCCC2)c(=O)[nH]1 + CC[C@@]1(O)C(=O)OCc2c1cc1n(c2=O)Cc2cc3c(CN(C)C)c(O)ccc3nc2-1 | > 10000 nM | > 10000 nM | < 31.6 nM | < 31.6 nM | < 31.6 nM | 87.6% | 78.4% | 84.7% | 82.2% | 85.9% | 50.9% | 76.9% | 77.2% | 76% | 71.7% | 64.8% | 53% | 32.5% | 37.8% | 34.9% | viability, T/C [16]: 35.5%; viability, T/C [17]: 28.6%; viability, T/C [18]: 27.8%; viability, T/C [19]: 14.8%; viability, T/C [20]: 14.2%; viability, T/C [21]: 14.2%; viability, T/C [22]: 13.4%; viability, T/C [23]: 14.1%; viability, T/C [24]: 13.1%; viability, T/C [25]: 3.97%; viability, T/C [26]: 4.78%; viability, T/C [27]: 4.87%; viability, T/C [28]: 5.2%; viability, T/C [29]: 5.56%; viability, T/C [30]: 6.73% |
| [2H]c1nc(C)nc([2H])c1-c1cc(NC[C@@H](C)c2cccc3c(C(=O)NC)ccnc23)ncn1 + CC[C@@]1(O)C(=O)OCc2c1cc1n(c2=O)Cc2cc3c(CN(C)C)c(O)ccc3nc2-1 | > 10000 nM | > 10000 nM | < 31.6 nM | < 31.6 nM | < 31.6 nM | 101% | 87.8% | 96.9% | 102% | 93.8% | 86.9% | 83.3% | 81% | 77.7% | 76.9% | 79.8% | 70.9% | 49.2% | 35.9% | 41.5% | viability, T/C [16]: 37.4%; viability, T/C [17]: 37.4%; viability, T/C [18]: 23%; viability, T/C [19]: 12.1%; viability, T/C [20]: 13.4%; viability, T/C [21]: 12.2%; viability, T/C [22]: 12.6%; viability, T/C [23]: 9.08%; viability, T/C [24]: 8.57%; viability, T/C [25]: 3.57%; viability, T/C [26]: 4.5%; viability, T/C [27]: 3.67%; viability, T/C [28]: 3.37%; viability, T/C [29]: 3.59%; viability, T/C [30]: 2.83% |
